What was measured:
[1] = tested on: serum antibodies (anti-native LL37/anti-cit-LL37); test: ELISA for autoantibody detection in sera; type: binding, human; details: for Antibody reactivity of control disease sera compared to SLE: psoriasis, RA, SSc and UC sera
Experimental: Anti-native/cit-LL37, other antigen antibodies (anti-DNA and anti-RNA), and total anti-human IgG were measured by ELISA as described. Briefly, 96-well flat-bottom plates (Non-Binding surface polystyrene, Corning, USA) are coated with 2 μg/mL of native LL37/cit-LL37 or control proteins or human DNA or human RNA[9] or anti-human IgG antibody (Sigma) in carbonate buffer (0.1 M NaHCHO3, pH 9) for 2 hours (or over night) and washed four times with PBS 0.1% Tween-20. This washing buffer was used for washing at all steps. The blocking buffer containing 2% bovine serum albumin (BSA, Sigma) in PBS was used for at least 1 hour (or over night) to saturate unspecific binding sites. After washing, sera were diluted at various concentrations (usually 1:100 or 1:200) in PBS 2% BSA (cell culture supernatants were diluted 1:2, 1:4 or 1:10) followed by 1 hour incubation with a horseradish peroxidase–conjugated (HRP) goat anti-human IgG (Sigma-Aldrich), diluted 1:10,000 in PBS. The color was developed for 5 minutes with 3,3’,5,5’-tetramethylbenzidine (TMB) substrate (Sigma-Aldrich). The reaction was stopped by adding 50 μl of 2 N H2SO4, and absorbance determined at 450 nm with a reference wavelength of 540 nm. Anti-dsDNA in sera of lupus patients were detected by the standard clinical test Kallestad Crithidia luciliae Complete Kits for detection and semi-quantitation of autoantibodies to native DNA (nDNA) antigens by indirect fluorescence antibody (IFA) procedure. ELISA for detection of anti-tetanus antibodies (anti-TT) was from Abnova (Taiwan).

[2] = tested on: CD4 T-cells in PBMC cultures; test: TFH/Th17 marker expression by flow cytometry (CXCR5, Bcl-6, Ror-γt); type: cell-based, human; details: for Bcl-6 expression / Ror-ɣt expression: CD38hi T-cells, 48 hours; for Bcl-6 expression: SLE but not psoriasis; for Ror-ɣt expression: both SLE and psoriasis; for CXCR5 expression by proliferating T-cells: SLE (but not in psoriasis)
Experimental: (§1) PBMCs were purified, from EDTA-treated blood, on Ficoll-Hypaque (Pharmacia Fine Chemicals, Uppsala, Sweden) were incubated (10^5 cells/well) in 96-well-flat-bottom-microplates (BD) in T cell-medium (RPMI 1640, 10% heat-inactivated human serum, HS, Gibco), 2 mM L-glutamine, 10 U/mL penicillin, and 100 μg/mL streptomycin), with/without peptides. We performed assays on fresh cells, within 1-to-3 hours from collection, or on PBMCs frozen in 90% FCS-10%DMSO, whose viability we assessed by Trypan blue exclusion, at inverted microscope. Recovery of live cells was between 65 and 85 % of the frozen number. At day3 and 5, BrdU was added (1 μg/mL). BrdU-incorporation was detected by APC-labeled anti-BrdU antibody (BD Pharmingen), after surface staining by flow cytometry. Internal control for T-cell viability and proliferation was PHA treatment (2 μg/mL). SI for proliferation was calculated by dividing percent of BrdU-staining in the presence of each peptide used to stimulate cells by percent of BrdU-staining in the absence of peptide stimulation. SI for proliferation was considered positive when>3. This cut-off was obtained by calculating the mean+2DS [1.5 + 2 (0.6)] (of the stimulation indexes calculated as above) of the proliferation of HD.
Basal % of proliferation was set using, as reference, an isotype matched antibody staining (APC-isotype control and) and never exceed 5% of cell proliferation value (background proliferation).
Assays were repeated twice with each patient. In rare cases in which background proliferation exceed antigen-specific proliferation the assay was repeated three times. Concomitant phenotype analysis of LL37-responder T-cells included staining for CD4, CD8, CXCR5, PD1, ICOS, CCR6. Ror-ɣt and Bcl-6 were measured by intracellular staining and flow cytometry, after 48 hours culture with LL37 or control antigen, and were analyzed on CD38highCD4 T-cells. […]

[3] = tested on: SLE/CLE CD4+ T-cell clones; test: T-cell clone reactivity (BrdU, HLA-matched B-LCLs pulsed with peptide); type: cell-based, human; details: clones from one SLE and one CLE patient
Experimental: as §1, with “HD. […]” for “HD.”
Assays were repeated twice with each patient. […] Ror-ɣt and Bcl-6 were measured by intracellular staining and flow cytometry, after 48 hours culture with LL37 or control antigen, and were analyzed on CD38highCD4 T-cells. […]
PBMCs were stimulated (2x10^6 cells/mL) with LL37 for 7 days and re-stimulated (10 days) with LL37-pulsed (10 µg/mL) autologous-ɣ-irradiated-(30Gy)-PBMCs in T-cell medium in the presence of human/recombinant (hr)IL-2 (Boehringer-Mannheim, Indian, USA). T cell lines-specificity was analyzed by using peptide-pulsed (0.1-10 µg/mL) autologous-irradiated PBMCs (30Gy) or lymphoblastoid-cell-lines (B-LCLs) (150Gy, 33). […]
analyzed by flow-cytometry (after staining by BrdU-detection kit, BD Pharmingen). […] Clones reactivity and HLA-restriction were analyzed using HLA-matched-homozigous B-LCLs, pulsed with […]

[4] = eight SLE patients with T-cell follow-up, successful standard therapy
[5] = three SLE patients unresponsive to treatment
[6] = twenty-one SLE patients responding to treatment, 6-to-36 months

| Substance | SLE patients with antibody reactivity ([1]; SLE sera, twenty-one (native LL37) and eighteen (cit-LL37) of 40) [%] | Antibody reactivity over time [1, 4] | Antibody reactivity of control disease sera compared to SLE [1] | Antibody reactivity over time [1, 5] | Antibody reactivity over time [1, 6] | Bcl-6 expression [2] | Ror-ɣt expression [2] | CXCR5 expression by proliferating T-cells [2] | T-cell clone reactivity [3] |
| --- | --- | --- | --- | --- | --- | --- | --- | --- | --- |
| LLGDFFRKSKEKIGKEFKRIVQRIKDFLRNLVPRTES [LL37, native LL37, antimicrobial peptide, 37 aa] | 53 | significantly declined | significantly weaker | increased | declined in parallel with SLEDAI reduction | could up-regulate Bcl-6 | could upregulate Ror-ɣt expression | significant up-regulation | Some of the T-cell clones proliferated exclusively after stimulation with native LL37 |
| LLGDFFR(cit)KSKEKIGKEFKR(cit)IVQR(cit)IKDFLR(cit)NLVPR(cit)TES [cit-LL37, citrullinated LL37 (citrullinated at all five arginin positions)] | – | significantly declined | significantly weaker | increased | declined in parallel with SLEDAI reduction | could up-regulate Bcl-6 | could upregulate Ror-ɣt expression | significant up-regulation | Other clones proliferated to both native LL37 and cit-LL37 |
